Source: PubChem BioAssay AID2060615 (Molecular Pharmacology Branch, DTP, NCI, 2025)

Test system: 496974-208-R-J2-PDC complex spheroids, growth % test/control
Test: Anticancer human tumor 496974-208-R-J2-PDC patient-derived pancreatic carcinoma cell line growth inhibition [CLK]
Conditions: for IC50: curve of first compound; for viability, T/C: stronger effect = lower value
Summary of the method: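 Multi-cell-type spheroids combined patient-derived tumor cells with HUVEC endothelial cells and human mesenchymal stem cells. Paired agents were dosed in half-log steps down from about clinical Cmax, or from 10 microM where Cmax was unknown.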

[1] = second compound 0.0316 µM, first compound 0.0316 µM
[2] = second compound 0.0316 µM, first compound 0.1 µM
[3] = second compound 0.0316 µM, first compound 0.316 µM
[4] = second compound 0.0316 µM, first compound 1 µM
[5] = second compound 0.0316 µM, first compound 3.16 µM
[6] = second compound 0.0316 µM, first compound 10 µM
[7] = second compound 0.1 µM, first compound 0.0316 µM
[8] = second compound 0.1 µM, first compound 0.1 µM
[9] = second compound 0.1 µM, first compound 0.316 µM
[10] = second compound 0.1 µM, first compound 1 µM
[11] = second compound 0.1 µM, first compound 3.16 µM
[12] = second compound 0.1 µM, first compound 10 µM
[13] = second compound 0.316 µM, first compound 0.0316 µM
[14] = second compound 0.316 µM, first compound 0.1 µM
[15] = second compound 0.316 µM, first compound 0.316 µM
[16] = second compound 0.316 µM, first compound 1 µM
[17] = second compound 0.316 µM, first compound 3.16 µM
[18] = second compound 0.316 µM, first compound 10 µM
[19] = second compound 1 µM, first compound 0.0316 µM
[20] = second compound 1 µM, first compound 0.1 µM
[21] = second compound 1 µM, first compound 0.316 µM
[22] = second compound 1 µM, first compound 1 µM
[23] = second compound 1 µM, first compound 3.16 µM
[24] = second compound 1 µM, first compound 10 µM
[25] = second compound 3.16 µM, first compound 0.0316 µM
[26] = second compound 3.16 µM, first compound 0.1 µM
[27] = second compound 3.16 µM, first compound 0.316 µM
[28] = second compound 3.16 µM, first compound 1 µM
[29] = second compound 3.16 µM, first compound 3.16 µM
[30] = second compound 3.16 µM, first compound 10 µM
[31] = second compound 10 µM, first compound 0.0316 µM
[32] = second compound 10 µM, first compound 0.1 µM
[33] = second compound 10 µM, first compound 0.316 µM
[34] = second compound 10 µM, first compound 1 µM
[35] = second compound 10 µM, first compound 3.16 µM
[36] = second compound 10 µM, first compound 10 µM
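Also: spheroids exposed to the drugs for 7 days before readout.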
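For viability, T/C in this document: 100% = DMSO vehicle control wells.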

In the case of `C=C(F)C(=O)N1CCN(c2nc(OCC3CCCN3C)nc3c2CCN(c2cccc4cccc(Cl)c24)C3)CC1CC#N` (stereo unspecified) + CNC(=O)c1ccc(Nc2nc(OC3CCCC3)c3c(-c4ccc5nc(C)oc5c4)c[nH]c3n2)c(OC)c1, the IC50 (second compound 0.0316 µM) is reported as 5.46 µM, the IC50 (second compound 0.1 µM) is reported as 4.52 µM and the IC50 (second compound 0.316 µM) is reported as 4.15 µM. For the same compound, the IC50 (second compound 1 µM) was 2.74 µM, the IC50 (second compound 3.16 µM) was 2.32 µM and the IC50 (second compound 10 µM) was 0.549 µM. For the same compound, the viability, T/C [1] was 89%, the viability, T/C [2] was 91.7% and the viability, T/C [3] was 90.5%. The viability, T/C [4] was 90.6%, the viability, T/C [5] was 91.4% and the viability, T/C [6] was 4.85%. For the same compound, the viability, T/C [7] was 79.2%, the viability, T/C [8] was 73.6% and the viability, T/C [9] was 72.9%. The viability, T/C [10] was 76.1%, the viability, T/C [11] was 71.7% and the viability, T/C [12] was 1.82%. The viability, T/C [13] was 80.4%, the viability, T/C [14] was 72.9% and the viability, T/C [15] was 73.5%. For the same compound, the viability, T/C [16] was 76.2%, the viability, T/C [17] was 63.8% and the viability, T/C [18] was 5.04%. It also gave a viability, T/C [19] of 69.5%, a viability, T/C [20] of 68.5% and a viability, T/C [21] of 64.7%. It also gave a viability, T/C [22] of 64.8%, a viability, T/C [23] of 47.9% and a viability, T/C [24] of 0.69%. For the same compound, the viability, T/C [25] was 59.8%, the viability, T/C [26] was 59.4% and the viability, T/C [27] was 55.8%. It also gave a viability, T/C [28] of 56.9%, a viability, T/C [29] of 47.5% and a viability, T/C [30] of 1.05%. It also gave a viability, T/C [31] of 56.4%, a viability, T/C [32] of 52.2% and a viability, T/C [33] of 48.4%. For the same compound, the viability, T/C [34] was 45.4%, the viability, T/C [35] was 39.8% and the viability, T/C [36] was 1.59%.
For `C=CC(=O)N1CCN(c2nc(=O)n(-c3c(C)ccnc3C(C)C)c3nc(-c4c(O)cccc4F)c(F)cc23)C(C)C1` (stereo unspecified) + CNC(=O)c1ccc(Nc2nc(OC3CCCC3)c3c(-c4ccc5nc(C)oc5c4)c[nH]c3n2)c(OC)c1, the IC50 (second compound 0.0316 µM) was over 10 µM, the IC50 (second compound 0.1 µM) was over 10 µM and the IC50 (second compound 0.316 µM) was over 10 µM. The IC50 (second compound 1 µM) was over 10 µM, the IC50 (second compound 3.16 µM) was 7.28 µM and the IC50 (second compound 10 µM) was 4.7 µM. For the same compound, the viability, T/C [1] was 106%, the viability, T/C [2] was 95.9% and the viability, T/C [3] was 93.6%. It also gave a viability, T/C [4] of 107%, a viability, T/C [5] of 102% and a viability, T/C [6] of 85.7%. For the same compound, the viability, T/C [7] was 71.5%, the viability, T/C [8] was 67.4% and the viability, T/C [9] was 78.5%. It also gave a viability, T/C [10] of 77.1%, a viability, T/C [11] of 73% and a viability, T/C [12] of 64.8%. The viability, T/C [13] was 78.8%, the viability, T/C [14] was 76.5% and the viability, T/C [15] was 71%. The viability, T/C [16] was 76.2%, the viability, T/C [17] was 71.1% and the viability, T/C [18] was 53.3%. The viability, T/C [19] was 63.2%, the viability, T/C [20] was 62.8% and the viability, T/C [21] was 67.7%. For the same compound, the viability, T/C [22] was 68.8%, the viability, T/C [23] was 66% and the viability, T/C [24] was 49%. The viability, T/C [25] was 51.6%, the viability, T/C [26] was 62.4% and the viability, T/C [27] was 52.3%. For the same compound, the viability, T/C [28] was 58.5%, the viability, T/C [29] was 55% and the viability, T/C [30] was 42.7%. The viability, T/C [31] was 62%, the viability, T/C [32] was 51.5% and the viability, T/C [33] was 51.6%. It also gave a viability, T/C [34] of 54.3%, a viability, T/C [35] of 55.7% and a viability, T/C [36] of 41%.
Compound `COC1C=CCC(C)C(C)S(=O)(=O)NC(=O)c2ccc3c(c2)N(CC2CCC21)CC1(CCCc2cc(Cl)ccc21)CO3` (stereo unspecified) + CNC(=O)c1ccc(Nc2nc(OC3CCCC3)c3c(-c4ccc5nc(C)oc5c4)c[nH]c3n2)c(OC)c1 has an IC50 (second compound 0.0316 µM) of 5.11 µM, an IC50 (second compound 0.1 µM) of 3.49 µM and an IC50 (second compound 0.316 µM) of 0.19 µM. The IC50 (second compound 1 µM) was 0.0521 µM, the IC50 (second compound 3.16 µM) was 0.0404 µM and the IC50 (second compound 10 µM) was 0.0409 µM. For the same compound, the viability, T/C [1] was 103%, the viability, T/C [2] was 60.8% and the viability, T/C [3] was 87.7%. The viability, T/C [4] was 71.9%, the viability, T/C [5] was 70% and the viability, T/C [6] was 26.3%. The viability, T/C [7] was 76.7%, the viability, T/C [8] was 55.6% and the viability, T/C [9] was 69.1%. It also gave a viability, T/C [10] of 60.2%, a viability, T/C [11] of 53.1% and a viability, T/C [12] of 29.7%. The viability, T/C [13] was 50.7%, the viability, T/C [14] was 57.1% and the viability, T/C [15] was 46.9%. For the same compound, the viability, T/C [16] was 41.3%, the viability, T/C [17] was 38.1% and the viability, T/C [18] was 49.9%. For the same compound, the viability, T/C [19] was 59.7%, the viability, T/C [20] was 36.7% and the viability, T/C [21] was 39.8%. For the same compound, the viability, T/C [22] was 34.4%, the viability, T/C [23] was 38% and the viability, T/C [24] was 30.6%. For the same compound, the viability, T/C [25] was 53.5%, the viability, T/C [26] was 36.3% and the viability, T/C [27] was 35%. It also gave a viability, T/C [28] of 33%, a viability, T/C [29] of 33.3% and a viability, T/C [30] of 29.7%. The viability, T/C [31] was 53.9%, the viability, T/C [32] was 36.8% and the viability, T/C [33] was 34.2%. It also gave a viability, T/C [34] of 31.6%, a viability, T/C [35] of 30.1% and a viability, T/C [36] of 24.1%.
